Results taken from ChEMBL document CHEMBL4622995, “Aryl Ether-Derived Sphingosine-1-Phosphate Receptor (S1P1) Modulators: Optimization of the PK, PD, and Safety Profiles” (ACS Med Chem Lett, 2020).

What was measured:
[1] = Cardiotoxicity in human iPSC derived cardiomyocytes assessed as reduction in beating rate at 1 nM; assay type: toxicity, cell-based, Cardiac muscle cell
[2] = Cardiotoxicity in human iPSC derived cardiomyocytes assessed as reduction in beating rate at 10 nM; assay type: toxicity, cell-based, Cardiac muscle cell
Rattus norvegicus [3] = assay: Reduction in circulating lymphocytes count in Lewis rat peripheral blood at 2 mg/kg, po measured after 24 hrs by hematology analyzer based analysis; assay type: functional
[4] = Elimination half-life in Lewis rat at 2 mg/kg, po; assay type: ADME, organism-based; details: in vivo, read-out: beta t1/2 (converted)
Rattus norvegicus [5] = assay: Reduction in circulating lymphocytes count in Lewis rat peripheral blood at 0.1 mg/kg, po measured after 24 hrs by hematology analyzer based analysis; assay type: functional
Rattus norvegicus [6] = assay: Reduction in circulating lymphocytes count in Lewis rat peripheral blood at 0.3 mg/kg, po measured after 24 hrs by hematology analyzer based analysis; assay type: functional
[7] = Elimination half-life in Lewis rat at 0.3 mg/kg, po; assay type: ADME, organism-based; details: in vivo, read-out: beta t1/2 (converted)
[8] = Pulmonary toxicity in Lewis rat assessed as elevation of BAL protein content at 2 mg/kg, po; assay type: organism-based; details: in vivo
Rattus norvegicus [9] = assay: Reduction in circulating lymphocytes count in po dosed Lewis rat peripheral blood measured after 24 hrs by hematology analyzer based analysis; assay type: functional
[10] = Pulmonary toxicity in Lewis rat assessed as elevation of BAL protein content at >30XED50, po; details: in vivo
Rattus norvegicus [11] = assay: Reduction in circulating lymphocytes count in Lewis rat peripheral blood at 0.05 mg/kg, po measured after 24 hrs by hematology analyzer based analysis; assay type: functional
Rattus norvegicus [12] = assay: Reduction in circulating lymphocytes count in Lewis rat peripheral blood at 1 mg/kg, po measured after 24 hrs by hematology analyzer based analysis; assay type: functional
Rattus norvegicus [13] = assay: Reduction in circulating lymphocytes count in Lewis rat peripheral blood at 1.5 mg/kg, po measured after 24 hrs by hematology analyzer based analysis; assay type: functional
Sphingosine kinase 2 [14] = molecular target: T1, Sphingosine kinase 2 (Rattus norvegicus, UniProt A6JB73); assay: Drug metabolism in Sprague-Dawley rat assessed as SphK2-mediated compound phosphorylation by measuring ratio of phosphorylated compound to parent compound measured after 24 hrs; assay type: ADME
T1 sequence (A6JB73 whole entry): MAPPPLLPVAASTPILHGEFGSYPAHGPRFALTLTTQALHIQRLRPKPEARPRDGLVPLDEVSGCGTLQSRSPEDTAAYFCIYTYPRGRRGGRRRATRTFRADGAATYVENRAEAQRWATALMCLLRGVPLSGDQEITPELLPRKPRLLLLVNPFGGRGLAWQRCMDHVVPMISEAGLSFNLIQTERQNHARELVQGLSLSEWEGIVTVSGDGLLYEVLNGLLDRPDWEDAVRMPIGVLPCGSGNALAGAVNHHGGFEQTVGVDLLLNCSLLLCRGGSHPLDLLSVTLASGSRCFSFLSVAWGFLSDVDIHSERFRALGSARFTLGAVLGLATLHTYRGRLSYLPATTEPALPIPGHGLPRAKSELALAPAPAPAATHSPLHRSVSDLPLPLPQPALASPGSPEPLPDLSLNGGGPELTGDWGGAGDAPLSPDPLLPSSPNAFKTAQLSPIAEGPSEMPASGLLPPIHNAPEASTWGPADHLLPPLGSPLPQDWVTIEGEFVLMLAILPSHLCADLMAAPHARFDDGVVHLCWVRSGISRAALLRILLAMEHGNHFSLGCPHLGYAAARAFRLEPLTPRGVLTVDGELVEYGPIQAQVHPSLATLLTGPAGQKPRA

[15] = Drug metabolism in Cynomolgous monkey assessed as SphK2-mediated compound phosphorylation by measuring ratio of phosphorylated compound to parent compound measured after 24 hrs; assay type: ADME, Macaca fascicularis; details: cynomolgus monkey
Sphingosine kinase 2 [16] = molecular target: T2, Sphingosine kinase 2 (Homo sapiens, UniProt Q9NRA0); assay: Drug metabolism in human assessed as SphK2-mediated compound phosphorylation by measuring ratio of phosphorylated compound to parent compound measured after 24 hrs; assay type: ADME
T2 sequence (Q9NRA0 whole entry): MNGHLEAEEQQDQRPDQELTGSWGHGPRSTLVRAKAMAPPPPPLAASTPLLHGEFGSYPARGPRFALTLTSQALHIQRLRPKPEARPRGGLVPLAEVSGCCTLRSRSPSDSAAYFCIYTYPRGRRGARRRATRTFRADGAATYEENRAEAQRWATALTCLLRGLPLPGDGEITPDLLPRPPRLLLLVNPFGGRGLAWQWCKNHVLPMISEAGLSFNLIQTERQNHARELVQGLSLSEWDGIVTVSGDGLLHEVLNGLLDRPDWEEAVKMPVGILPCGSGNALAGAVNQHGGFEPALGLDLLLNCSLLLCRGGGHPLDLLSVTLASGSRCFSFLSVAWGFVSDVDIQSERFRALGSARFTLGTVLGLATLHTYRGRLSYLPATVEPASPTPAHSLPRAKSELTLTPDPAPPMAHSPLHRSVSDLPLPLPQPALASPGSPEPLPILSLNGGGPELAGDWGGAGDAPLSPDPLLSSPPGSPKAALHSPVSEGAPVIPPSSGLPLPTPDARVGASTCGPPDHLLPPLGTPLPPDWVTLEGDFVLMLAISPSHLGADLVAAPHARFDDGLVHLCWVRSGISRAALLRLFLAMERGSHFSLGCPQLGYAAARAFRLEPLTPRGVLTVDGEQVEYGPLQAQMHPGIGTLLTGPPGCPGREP

[17] = Elimination half-life in po dose Lewis rat; assay type: ADME, organism-based; details: in vivo, read-out: beta t1/2
Homo sapiens = species on record: Homo sapiens; assay: Reduction in absolute lymphocytes count in human at 1.5 mg/day; assay type: functional

`CCCCCC[C@@H]1CCc2cc([C@H]3CC[C@](N)(COP(=O)(O)O)C3)ccc2C1` gave an inhibition at 0.001 µM [1] of 1% and an inhibition at 0.01 µM [2] of 32%.

Compound `N[C@]1(CO)CC[C@H](c2ccc3c(c2)CC[C@@H](COc2ccc(F)cc2)C3)C1` has an inhibition in vivo at 2 mg/kg (Rattus norvegicus [3]) of 74% and a half-life [4] of 46 h.

For `COc1ccc(OC[C@@H]2CCc3cc([C@H]4CC[C@](N)(CO)C4)ccc3C2)cc1`, the inhibition in vivo at 2 mg/kg (Rattus norvegicus [3]) was 47% and the half-life [4] was under 10 h.

With `COc1ccccc1CC[C@H]1CCc2cc([C@H]3CC[C@](N)(CO)C3)ccc2C1` the inhibition in vivo at 0.1 mg/kg (Rattus norvegicus [5]) was 17%.

Work on `COc1cccc(CO[C@H]2CCc3cc([C@H]4CC[C@](N)(CO)C4)ccc3C2)c1` yielded an inhibition in vivo at 0.3 mg/kg (Rattus norvegicus [6]) of 13%.

Work on `N[C@]1(CO)CC[C@H](c2ccc3c(c2)CC[C@H](COCc2ccccc2)C3)C1` yielded an inhibition in vivo at 0.3 mg/kg (Rattus norvegicus [6]) of 0%.

Work on `N[C@]1(CO)CC[C@H](c2ccc3c(c2)CC[C@@H](COCc2ccccc2)C3)C1` yielded an inhibition in vivo at 0.3 mg/kg (Rattus norvegicus [6]) of 49% and a half-life [7] of 11 h.

In the case of `COc1ccccc1CC[C@@H]1CCc2cc([C@H]3CC[C@](N)(COP(=O)(O)O)C3)ccc2C1`, the inhibition at 0.001 µM [1] is reported as 11% and the inhibition at 0.01 µM [2] is reported as 27%.

`COc1ccccc1OC[C@@H]1CCc2cc([C@H]3CC[C@](N)(COP(=O)(O)O)C3)ccc2C1` gave an inhibition at 0.001 µM [1] of 20% and an inhibition at 0.01 µM [2] of 43%.

With `Cc1ccc(OC[C@@H]2CCc3cc([C@H]4CC[C@](N)(CO)C4)ccc3C2)cc1` the inhibition in vivo at 2 mg/kg (Rattus norvegicus [3]) was 20% and the half-life [4] was 35 h.

`COc1ccccc1OC[C@@H]1CCc2cc([C@H]3CC[C@](N)(CO)C3)ccc2C1` showed an inhibition in vivo at 2 mg/kg (Rattus norvegicus [3]) of 85% and a half-life [4] of 14 h.

In the case of `COc1cccc(OC[C@H]2CCc3cc([C@H]4CC[C@](N)(CO)C4)ccc3C2)c1`, the inhibition in vivo at 0.3 mg/kg (Rattus norvegicus [6]) is reported as 70%.

`N[C@]1(CO)CC[C@H](c2ccc3c(c2)CC[C@H](CSc2ccccc2)C3)C1` gave an inhibition in vivo at 0.3 mg/kg (Rattus norvegicus [6]) of 29%.

`COc1ccc(OC[C@@H]2CCc3cc([C@H]4CC[C@](N)(CO)C4)ccc3C2)c(F)c1F` gave an inhibition in vivo at 2 mg/kg (Rattus norvegicus [3]) of 48%.

With `COc1ccccc1SC[C@@H]1CCc2cc([C@H]3CC[C@](N)(CO)C3)ccc2C1` the inhibition in vivo at 2 mg/kg (Rattus norvegicus [3]) was 78 to 79%, the Activity [8] was 67% and the half-life [4] was 24 h.

Work on `COc1cccc(COC[C@@H]2CCc3cc([C@H]4CC[C@](N)(CO)C4)ccc3C2)c1` yielded an inhibition in vivo at 0.3 mg/kg (Rattus norvegicus [6]) of 40%.

`COc1cccc(OC[C@@H]2CCc3cc([C@H]4CC[C@](N)(COP(=O)(O)O)C4)ccc3C2)c1` gave an inhibition at 0.001 µM [1] of 13% and an inhibition at 0.01 µM [2] of 30%.

Work on `COc1cccc(OC[C@@H]2CCc3cc([C@H]4CC[C@](N)(CO)C4)ccc3C2)c1` yielded an inhibition in vivo at 0.3 mg/kg (Rattus norvegicus [6]) of 80%, an inhibition in vivo at 2 mg/kg (Rattus norvegicus [3]) of 86% and an ED50 (Rattus norvegicus [9]) of under 0.05 mg/kg. The Activity [10] was “Non-Toxic”, the inhibition in vivo at 0.05 mg/kg (Rattus norvegicus [11]) was 72% and the inhibition in vivo at 1 mg/kg (Rattus norvegicus [12]) was 80%. It also gave an inhibition in vivo at 1.5 mg/kg (Rattus norvegicus [13]) of 81%, a Ratio (Sphingosine kinase 2 [14]) of 1.5 and a Ratio [15] of 1.3. The half-life [7] was 24 h and the half-life [4] was 24 h.

In the case of `COc1ccccc1SC[C@@H]1CCc2cc([C@H]3CC[C@](N)(COP(=O)(O)O)C3)ccc2C1`, the inhibition at 0.001 µM [1] is reported as 16% and the inhibition at 0.01 µM [2] is reported as 26%.

With `N[C@]1(COP(=O)(O)O)CC[C@H](c2ccc3c(c2)CC[C@@H](COCc2ccccc2)C3)C1` the inhibition at 0.001 µM [1] was 16% and the inhibition at 0.01 µM [2] was 52%.

Work on `COc1cccc(CO[C@@H]2CCc3cc([C@H]4CC[C@](N)(CO)C4)ccc3C2)c1` yielded an inhibition in vivo at 0.3 mg/kg (Rattus norvegicus [6]) of 15%.

In the case of `COc1cccc(SC[C@@H]2CCc3cc([C@H]4CC[C@](N)(COP(=O)(O)O)C4)ccc3C2)c1`, the inhibition at 0.001 µM [1] is reported as 30% and the inhibition at 0.01 µM [2] is reported as 44%.

Compound `COc1ccc(OC[C@@H]2CCc3cc([C@H]4CC[C@](N)(CO)C4)ccc3C2)cc1C(C)(C)C` has an inhibition in vivo at 2 mg/kg (Rattus norvegicus [3]) of 53%.

Compound `N[C@]1(CO)CC[C@H](c2ccc3c(c2)CC[C@@H](CSc2ccccc2)C3)C1` has an inhibition in vivo at 0.3 mg/kg (Rattus norvegicus [6]) of 31%, an inhibition in vivo at 2 mg/kg (Rattus norvegicus [3]) of 73% and a half-life [4] of 20 h.

Compound `COc1ccc(COC[C@@H]2CCc3cc([C@H]4CC[C@](N)(CO)C4)ccc3C2)cc1` has an inhibition in vivo at 0.3 mg/kg (Rattus norvegicus [6]) of 33%.

For `COc1cccc(SC[C@@H]2CCc3cc([C@H]4CC[C@](N)(CO)C4)ccc3C2)c1`, the inhibition in vivo at 2 mg/kg (Rattus norvegicus [3]) was 81% and the half-life [4] was 21 h.

`CCCCCC[C@@H]1CCc2cc([C@H]3CC[C@](N)(CO)C3)ccc2C1` [BMS-986104] gave an ED50 (Rattus norvegicus [9]) of 0.25 mg/kg, a Ratio (Sphingosine kinase 2 [14]) of 2.5 and a Ratio [15] of 0.3. It also gave a Ratio (Sphingosine kinase 2 [16]) of 0.1 and a half-life [17] of over 100 h.

For `COc1ccccc1CC[C@@H]1CCc2cc([C@H]3CC[C@](N)(CO)C3)ccc2C1` [UDIFITIMOD], the “inhibition (INH)” value (Homo sapiens) was over 80%, the inhibition in vivo at 0.1 mg/kg (Rattus norvegicus [5]) was 53% and the inhibition in vivo at 2 mg/kg (Rattus norvegicus [3]) was 81%. For the same compound, the ED50 (Rattus norvegicus [9]) was 0.1 mg/kg, the Ratio (Sphingosine kinase 2 [14]) was 5.2 and the Ratio [15] was 1. For the same compound, the Ratio (Sphingosine kinase 2 [16]) was 0.6 and the half-life [4] was 27 h.
